Patent US20240196889A1, “USE OF DI- AND TRI[…] ACIDS IN THE PREVENTION OF BIOFILM FORMATION” (priority 2020, published 2024)

Columns and labels:
Salmonella biofilms = assay: Tolerance assay of mature biofilms (H2O2 or ciprofloxacin, CFU); type: cell-based; conditions: grown 48 h with 100 μM
Experimental: It is well established that biofilms can be extremely tolerant to treatment with antimicrobials. To test whether the preventive addition of agaric acid renders Salmonella biofilms more susceptible to treatment with common disinfectants or antibiotics, biofilms grown in the presence and absence of agaric acid for 48 hour were treated for 1 h with 0.25% H2O2 or 1 μM ciprofloxacin. Hydrogen peroxide is a commonly used disinfectant in food industry [Meireles et al. (2016) Food Research International 82, 71-85; Meireles et al. (2016) Food Research International 82, 71-85], whereas ciprofloxacin is a fluoroquinolone antibiotic frequently used to treat Salmonella infections [Tabak et al. (2009) FEMS microbiology letters 301, 69-76].
To determine the tolerance of mature biofilms, biofilms were grown on microscopy glasses (75 mm×25 mm) placed vertical in a 50 ml falcon filled with 30 ml TSB 1/20. This set-up allows for easy transfer of mature biofilms as the top of vertical slide sticks out of the medium which allows to grab the slide with a pincer without damaging the biofilm. ONC of Salmonella were normalized to an OD600 of 3.2 and diluted 1/100 into the broth containing either a final concentration of 100 μM agaric or the corresponding amount of DMSO. […] The number of colony forming units (CFU) of biofilms was determined by plating.

E. coli TG1 = assay: Antibiofilm assay (Calgary biofilm device); type: cell-based, Escherichia coli
Experimental: A static peg assay for the prevention of bacterial biofilm formation was used as described previously. A lid carrying 96 polystyrene pegs was fitted into a microtiter plate with a peg hanging into each well. Two-fold serial dilutions of the compounds in 100 μl liquid broth per well were prepared in the microtiter plate. Subsequently, an overnight culture was diluted 1:100 into the respective liquid broth, and 100 μl (˜10^6 cells) was added to each well of the microtiter plate, resulting in a total amount of 200 μl medium per well. After placing the lid on the microtiter plate, samples containing Salmonella, Pseudomonas or E. coli were incubated statically in TSB 1/20 for 48 h at 25° C., whereas S. aureus was incubated in undiluted TSB at 37° C. for 48 h. After incubation, the lid was removed from the microtiter plate and liquid culture was transferred to a new microtiter plate prior to determining the prior to determining the planktonic growth in each well via OD600 measurements using a Synergy MX multimode reader (Biotek, Winooski, VT). The pegs were washed once in 200 μl PBS and the remaining attached bacteria were stained for 30 min with 200 μl 0.1% crystal violet in an isopropanol-methanol-PBS solution (1:1:18). […] The OD570 of each well was measured using a Synergy MX multimode reader. Data was analysed using the GraphPad Prism 6 software.

motA deletion mutant = assay: Biofilm formation of motA deletion mutant; type: cell-based, Salmonella; conditions: addition of agaric acid to the deletion mutant
[1] = tested on: Salmonella Typhimurium ATCC 14028; assay: Antibiofilm assay (static peg assay, Calgary biofilm device, crystal violet staining; planktonic growth via OD600); type: cell-based, Salmonella enterica serovar Typhimurium
Experimental: A static peg assay for the prevention of bacterial biofilm formation was used as described previously. A lid carrying 96 polystyrene pegs was fitted into a microtiter plate with a peg hanging into each well. Two-fold serial dilutions of the compounds in 100 μl liquid broth per well were prepared in the microtiter plate. Subsequently, an overnight culture was diluted 1:100 into the respective liquid broth, and 100 μl (˜10^6 cells) was added to each well of the microtiter plate, resulting in a total amount of 200 μl medium per well. After placing the lid on the microtiter plate, samples containing Salmonella, Pseudomonas or E. coli were incubated statically in TSB 1/20 for 48 h at 25° C., whereas S. aureus was incubated in undiluted TSB at 37° C. for 48 h. After incubation, the lid was removed from the microtiter plate and liquid culture was transferred to a new microtiter plate prior to determining the prior to determining the planktonic growth in each well via OD600 measurements using a Synergy MX multimode reader (Biotek, Winooski, VT). The pegs were washed once in 200 μl PBS and the remaining attached bacteria were stained for 30 min with 200 μl 0.1% crystal violet in an isopropanol-methanol-PBS solution (1:1:18). Excess stain was washed off by placing the pegs in a 96-well plate filled with 200 μl distilled water per well. Afterwards, the pegs were air dried for 30 min and the dye bound to the adherent cells dissolved into 200 μl 30% glacial acetic acid. The OD570 of each well was measured using a Synergy MX multimode reader. Data was analysed using the GraphPad Prism 6 software.

Salmonella = assay: Soft agar swimming assay; type: cell-based, Salmonella enterica serovar Typhimurium; conditions: 100 μM, 0.25% agar, 24 h, 25° C.
Experimental: Based on Kim & Surette (2003) Biol Proced Online 5, 189-196, swimming plates were made by mixing 30 ml TSB 1/20 with 0.25% agar. These plates contained either a final concentration of 100 μM agaric or the corresponding amount of DMSO. After 2 h drying at room temperature, 3 μl of an overnight culture was inoculated by piercing the surface of the agar with the pipette tip. The plates were incubated upright for 24 h at 25° C., afterwards the size of the halo was measured and visually recorded.

[2] = tested on: S. Typhimurium SL1344 (S1), S. Typhimurium ATCC14028 (S2) and E. coli MG1655 (E1); assay: Mixed-species biofilm assay (CFU); type: cell-based, Salmonella Typhimurium and E. coli
From the text: In situ, biofilms are typically complex communities consisting of various bacterial strains and species [Elias & Banin (2012) FEMS Microbiol Rev 36, 990-1004; Burmølle et al. (2014) Trends Microbiol 22, 84-91; Giaouris et al. (2015) Front Microbiol 6, Article 841; Mitri & Richard Foster (2013) Communities. Annual Review of Genetics 47, 247-273]. […] Microbial ecology 68, 146-154]. Hereto, a a previously characterized model community was utilized consisting of two Salmonella and one E. coli strain (S. Typhimurium SL1344 (S1), S. Typhimurium ATCC14028 (S2) and E. coli MG1655 (E1)). […] The reduced biofilm productivity of the mixed-species community is mainly due to the inhibition of the S2 strain (FIG. 6B). The lack of […] inhibition in mixed-species conditions is possibly due to agaric acid weakening the competitive interactions experienced by S1 (FIG. 6C). […] Consequently, […] detected the damage imposed by competition via its stress response systems and induces a competitive response. […] Therefore, it was subsequently explored whether agaric acid can interfere with the increased tolerance in mixed-species conditions by weakening the competition and preventing the induction of this competitive response.
ONCs of S1, S2 and E1 were normalized to an OD595 of 3.2 and added to a small (60 mm Ø) glass Petri dishes containing 10 ml of 1/20 TSB. The three strain were inoculated in a 1:1:1 ratio and incubated under static conditions at 25° C. for 48 h. The same total number of cells was inoculated in mono- and mixed-species conditions (˜12*10^7 cells ml^−1). Afterwards, the liquid above the biofilms was poured off and the biofilms were scraped off the bottom of the plate in 1 ml of PBS, passed through a syringe (25 G) and vortexed to break down the biofilm structure and ensure an homogenous suspension during dilution. The number of colony forming units (CFU) of biofilms was determined by plating. To differentiate between the strains, S1 was labelled with constitutive gfpmut3 on a plasmid, while S2 and E1 were labelled with plasmid-encoded constitutive dsRed.T4. […]

## CCCCCCCCCCCCCCCCC(C(=O)O)C(O)(CC(=O)O)C(=O)O (centres unmarked) [Agaric acid, 2-hydroxynonadecane-1,2,3-tricarboxylic acid]
Salmonella biofilms; then 1 μM ciprofloxacin for 1 h
  susceptibility of biofilms to ciprofloxacin: further increased the effect of a ciprofloxacin treatment, albeit not significantly
Salmonella biofilms; then 0.25% H2O2 for 1 h
  susceptibility of biofilms to H2O2: significantly more susceptible to hydrogen peroxide
E. coli TG1
  planktonic growth (OD600): unaffected, except for an increase at the highest concentration
E. coli TG1; crystal violet staining
  concentration at which significant biofilm inhibition already occurred: 12.5 µM
motA deletion mutant
  biofilm formation of motA deletion mutant: did not further reduce biofilm formation
[1]; Salmonella enterica, at 800 μM, crystal violet staining, read-out: inhibition of biofilm formation
  inhibition at 800 µM: 99.9%
[1]; after 48 h incubation in the Calgary biofilm device
  planktonic growth (OD600): not inhibited
[1]; crystal violet staining, TSB 1/20, 48 h, 25° C.
  concentrations at which biofilm formation is significantly prevented: higher than 100 μM
[1]; highest concentration tested
  planktonic growth (OD600) at the highest concentration: enhanced
Salmonella
  swimming motility (halo formation): no halo was formed
Salmonella; listed as agaric acid
  swimming motility (halo formation): almost completely inhibited motility
[2]
  competition experienced by S1 in presence of S2 and E1: weakens the competition experienced by S1
[2]; 100 μM
  biofilm formation of S2 strain in the mixed-species community: significantly inhibited
[2]; S1, S2 and E1 1:1:1, 48 h, 25° C.
  number of biofilm cells of mixed-species consortium attached to abiotic surface: significantly reduced the number of biofilm cells
